Where two headings read alike, the source gives them in different places.
Assays:
[1] = system: mutated variants of HIV; conditions: many of its mutated variants; cited from earlier work
[2] = Kinetic study: plasma kinetics of TMC278 after single IM or SC injection of a nanosuspension; type: in vivo, male beagle dogs; conditions: 5 mg/kg; for AUC(0-t) / Cmax / Tmax / concentration at 0 h / concentration at 1 h / concentration at 3 h / concentration at 8 h / concentration at 24 h / concentration at 48 h / concentration at 72 h / concentration at 144 h / concentration at 192 h / concentration at 240 h / concentration at 312 h / concentration at 384 h / concentration at 480 h / concentration at 648 h / concentration at 696 h / concentration at 864 h / concentration at 1032 h / concentration at 1200 h / concentration at 1368 h / concentration at 1536 h / concentration at 1704 h / concentration at 1872 h / concentration at 2040 h / concentration at 2208 h: male, beagle, dog, plasma; for AUC(0-t) / Cmax / Tmax: im, single IM 5 mg/kg TMC278 nanosuspension; for Cmax: read-out: Cmax; for Tmax: read-out: Tmax; for concentration at 0 h / concentration at 1 h / concentration at 3 h / concentration at 8 h / concentration at 24 h / concentration at 48 h / concentration at 72 h / concentration at 144 h / concentration at 192 h / concentration at 240 h / concentration at 312 h / concentration at 384 h / concentration at 480 h / concentration at 648 h / concentration at 696 h / concentration at 864 h / concentration at 1032 h / concentration at 1200 h / concentration at 1368 h / concentration at 1536 h / concentration at 1704 h / concentration at 1872 h / concentration at 2040 h / concentration at 2208 h: intramuscular, plasma concentration of TMC278, single IM 5 mg/kg TMC278 nanosuspension;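 as to all read-outs here: healthy male beagle dogs injected in both biceps femoris muscles (IM) or both thoracal sides (SC), total volume 0.2 mL/kg, drug measured in plasma from blood samples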
Description: Six healthy male beagle dogs with body weights ranging from 8 to 16 kg at the start of the study, were used. Each dog was identified by an ear tattoo number. Two dogs were dosed intramuscularly (IM) in the left and right m. biceps femoris (treatment group A). […] Two dogs were dosed subcutaneously (SC) in the left and right thoracal region. The injection volume was 2×0.1 ml/kg in all treatment groups. A 20 G needle was used.
Blood samples of 3 ml were taken from the left jugular vein from all dogs on day 0 at 0 h (predose), 20 min, 1 h, 3 h, 8 h and 24 h post-dose and further on days 2, 3, 6, 8, 10, 13, 16, 20, 23, 27, 29, 36, 43, 50, 57, 64, 71, 78, 85 and 92 at approximately 8 AM. Blood samples were placed on EDTA, EDTA Vacuette Greiner, Cat. No. 454086, Greiner Labortechnik N.V.). Within 2 h of blood sampling, samples were centrifuged at room temperature at about 1900×g for 10 minutes to allow plasma separation. Plasma was immediately transferred into a second tube and stored in the freezer within 2 hours after the start of centrifugation.

Cc1cc(C=CC#N)cc(C)c1Nc1ccnc(Nc2ccc(C#N)cc2)n1 [TMC278, 4-[[4-[[4-(2-cyanoethenyl)-2,6-dimethylphenyl]amino]-2-pyrimidinyl]amino]benzonitrile]
activity against mutated variants of HIV (in words) [1]: pronounced activity | blood plasma levels after injection (in words) ([2]; injectable formulation of nanonised substance, male beagle dogs): stable blood plasma levels during a prolonged period of time | AUC(0-t) ([2]; dog 17264, read-out: AUC0-312 h): 27.4 µg·h/mL | AUC(0-t) ([2]; dog 17264, read-out: AUC0-696 h): 34.8 µg·h/mL | AUC(0-t) ([2]; dog 17264, read-out: AUC0-2208 h): 40.5 µg·h/mL | Cmax ([2]; dog 17264): 0.159 µg/mL | Tmax ([2]; dog 17264): 48 h | AUC(0-t) ([2]; dog 18186, read-out: AUC0-312 h): 26.6 µg·h/mL | AUC(0-t) ([2]; dog 18186, read-out: AUC0-696 h): 33 µg·h/mL | AUC(0-t) ([2]; dog 18186, read-out: AUC0-2208 h): 38.2 µg·h/mL | Cmax ([2]; dog 18186): 0.186 µg/mL | AUC(0-t) ([2]; mean of 2 dogs, read-out: AUC0-312 h): 27 µg·h/mL | AUC(0-t) ([2]; mean of 2 dogs, read-out: AUC0-696 h): 33.9 µg·h/mL | AUC(0-t) ([2]; mean of 2 dogs, read-out: AUC0-2208 h): 39.4 µg·h/mL | Cmax ([2]; mean of 2 dogs): 0.173 µg/mL | Tmax ([2]; mean of 2 dogs): 24 h | concentration at 0 h ([2]; dog 17264, 0 h (d0, predose)): < 0.001 µg/mL | concentration at 1 h ([2]; dog 17264, 1 h): 0.11 µg/mL | concentration at 3 h ([2]; dog 17264, 3 h): 0.131 µg/mL | concentration at 8 h ([2]; dog 17264, 8 h): 0.13 µg/mL | concentration at 24 h ([2]; dog 17264, 24 h (d1)): 0.15 µg/mL | concentration at 48 h ([2]; dog 17264, 48 h (d2)): 0.159 µg/mL | concentration at 72 h ([2]; dog 17264, 72 h (d3)): 0.115 µg/mL | concentration at 144 h ([2]; dog 17264, 144 h (d6)): 0.0862 µg/mL | concentration at 192 h ([2]; dog 17264, 192 h (d8)): 0.0724 µg/mL | concentration at 240 h ([2]; dog 17264, 240 h (d10)): 0.0567 µg/mL | concentration at 312 h ([2]; dog 17264, 312 h (d13)): 0.0334 µg/mL | concentration at 384 h ([2]; dog 17264, 384 h (d16)): 0.0239 µg/mL | concentration at 480 h ([2]; dog 17264, 480 h (d20)): 0.0205 µg/mL | concentration at 648 h ([2]; dog 17264, 648 h (d27)): 0.0114 µg/mL | concentration at 696 h ([2]; dog 17264, 696 h (d29)): 0.0113 µg/mL | concentration at 864 h ([2]; dog 17264, 864 h (d36)): 0.00733 µg/mL | concentration at 1032 h ([2]; dog 17264, 1032 h (d43)): 0.00519 µg/mL | concentration at 1200 h ([2]; dog 17264, 1200 h (d50)): 0.0034 µg/mL | concentration at 1368 h ([2]; dog 17264, 1368 h (d57)): 0.003 µg/mL | concentration at 1536 h ([2]; dog 17264, 1536 h (d64)): 0.00284 µg/mL | concentration at 1704 h ([2]; dog 17264, 1704 h (d71)): 0.00248 µg/mL | concentration at 1872 h ([2]; dog 17264, 1872 h (d78)): 0.00179 µg/mL | concentration at 2040 h ([2]; dog 17264, 2040 h (d85)): 0.00199 µg/mL | concentration at 2208 h ([2]; dog 17264, 2208 h (d92)): 0.00156 µg/mL | concentration at 0 h ([2]; dog 18186, 0 h (d0, predose)): < 0.001 µg/mL | concentration at 1 h ([2]; dog 18186, 1 h): 0.0826 µg/mL | concentration at 3 h ([2]; dog 18186, 3 h): 0.145 µg/mL | concentration at 8 h ([2]; dog 18186, 8 h): 0.136 µg/mL | concentration at 24 h ([2]; dog 18186, 24 h (d1)): 0.12 µg/mL | concentration at 48 h ([2]; dog 18186, 48 h (d2)): 0.132 µg/mL | concentration at 72 h ([2]; dog 18186, 72 h (d3)): 0.0996 µg/mL | concentration at 144 h ([2]; dog 18186, 144 h (d6)): 0.0919 µg/mL | concentration at 192 h ([2]; dog 18186, 192 h (d8)): 0.0755 µg/mL | concentration at 240 h ([2]; dog 18186, 240 h (d10)): 0.0625 µg/mL | concentration at 312 h ([2]; dog 18186, 312 h (d13)): 0.038 µg/mL | concentration at 384 h ([2]; dog 18186, 384 h (d16)): 0.0206 µg/mL | concentration at 480 h ([2]; dog 18186, 480 h (d20)): 0.0166 µg/mL | concentration at 648 h ([2]; dog 18186, 648 h (d27)): 0.00908 µg/mL | concentration at 696 h ([2]; dog 18186, 696 h (d29)): 0.0112 µg/mL | concentration at 864 h ([2]; dog 18186, 864 h (d36)): 0.00644 µg/mL | concentration at 1032 h ([2]; dog 18186, 1032 h (d43)): 0.00518 µg/mL | concentration at 1200 h ([2]; dog 18186, 1200 h (d50)): 0.00325 µg/mL | concentration at 1368 h ([2]; dog 18186, 1368 h (d57)): 0.003 µg/mL | concentration at 1536 h ([2]; dog 18186, 1536 h (d64)): 0.00244 µg/mL | concentration at 1704 h ([2]; dog 18186, 1704 h (d71)): 0.00184 µg/mL | concentration at 1872 h ([2]; dog 18186, 1872 h (d78)): 0.00145 µg/mL | concentration at 2040 h ([2]; dog 18186, 2040 h (d85)): 0.00161 µg/mL | concentration at 2208 h ([2]; dog 18186, 2208 h (d92)): 0.00125 µg/mL | concentration at 0 h ([2]; mean of 2 dogs, 0 h (d0, predose)): < 0.001 µg/mL | concentration at 1 h ([2]; mean of 2 dogs, 1 h): 0.0963 µg/mL | concentration at 3 h ([2]; mean of 2 dogs, 3 h): 0.138 µg/mL | concentration at 8 h ([2]; mean of 2 dogs, 8 h): 0.133 µg/mL | concentration at 24 h ([2]; mean of 2 dogs, 24 h (d1)): 0.135 µg/mL | concentration at 48 h ([2]; mean of 2 dogs, 48 h (d2)): 0.146 µg/mL | concentration at 72 h ([2]; mean of 2 dogs, 72 h (d3)): 0.107 µg/mL | concentration at 144 h ([2]; mean of 2 dogs, 144 h (d6)): 0.0891 µg/mL | concentration at 192 h ([2]; mean of 2 dogs, 192 h (d8)): 0.074 µg/mL | concentration at 240 h ([2]; mean of 2 dogs, 240 h (d10)): 0.0596 µg/mL | concentration at 312 h ([2]; mean of 2 dogs, 312 h (d13)): 0.0357 µg/mL | concentration at 384 h ([2]; mean of 2 dogs, 384 h (d16)): 0.0223 µg/mL | concentration at 480 h ([2]; mean of 2 dogs, 480 h (d20)): 0.0186 µg/mL | concentration at 648 h ([2]; mean of 2 dogs, 648 h (d27)): 0.0102 µg/mL | concentration at 696 h ([2]; mean of 2 dogs, 696 h (d29)): 0.0113 µg/mL | concentration at 864 h ([2]; mean of 2 dogs, 864 h (d36)): 0.00689 µg/mL | concentration at 1032 h ([2]; mean of 2 dogs, 1032 h (d43)): 0.00519 µg/mL | concentration at 1200 h ([2]; mean of 2 dogs, 1200 h (d50)): 0.00333 µg/mL | concentration at 1368 h ([2]; mean of 2 dogs, 1368 h (d57)): 0.003 µg/mL | concentration at 1536 h ([2]; mean of 2 dogs, 1536 h (d64)): 0.00264 µg/mL | concentration at 1704 h ([2]; mean of 2 dogs, 1704 h (d71)): 0.00216 µg/mL | concentration at 1872 h ([2]; mean of 2 dogs, 1872 h (d78)): 0.00162 µg/mL | concentration at 2040 h ([2]; mean of 2 dogs, 2040 h (d85)): 0.0018 µg/mL
